From ChEMBL document CHEMBL2321805, “N-methyldihydroquinazolinone derivatives of Retro-2 with enhanced efficacy against Shiga toxin” (J Med Chem, 2013)

Tested on: HeLa
Experiment: Cytoprotective activity against shiga toxin-induced cytotoxicity in human HeLa cells at 30 uM incubated for 4 hrs prior to shiga toxin addition measured after 20 hrs by liquid scintillation counting analysis relative to Retro-2
Assay type: functional

SMILES | Activity [%]
Cc1ccc(C2Nc3ccccc3C(=O)N2[C@H]2C[C@@H]3CC[C@H]2C3)s1 (mixture of isomers) | 0
Cc1ccc(C2N(C)c3ccccc3C(=O)N2c2ccccc2[N+](=O)[O-])s1 (racemic) | 33
CN1c2ccccc2C(=O)N(c2ccccc2)C1c1ccc(C=O)s1 (racemic) | 0
CN1c2ccccc2C(=O)N(c2ccccc2)C1c1ccc(CO)s1 (racemic) | 0
Cc1ccc(C2Nc3cc(F)ccc3C(=O)N2c2ccccc2)s1 (racemic) | 0
Cc1ccc(C2N(c3ccccc3)C(=O)c3ccccc3N2C(=O)c2ccccc2)s1 (racemic) | 0
Cc1ccc(C2N(Cc3ccccc3)c3ccccc3C(=O)N2c2ccccc2)s1 (racemic) | 1
CCN1c2ccccc2C(=O)N(c2ccccc2)C1c1ccc(C)s1 (racemic) | 2.9
CCCN1c2ccccc2C(=O)N(c2ccccc2)C1c1ccc(C)s1 (racemic) | 0
CCCCN1c2ccccc2C(=O)N(c2ccccc2)C1c1ccc(C)s1 (racemic) | 0
COc1ccc(C2Nc3ccccc3C(=O)N2c2ccccc2)cc1 (racemic) | 10
CN(C)c1ccc(C2Nc3ccccc3C(=O)N2c2ccccc2)cc1 (racemic) | 48
Cc1ccc(C2Nc3ccccc3C(=O)N2C23CC4CC(CC(O)(C4)C2)C3)s1 (racemic) | 0
Cc1ccc(C2Nc3ccccc3C(=O)N2Cc2ccccc2)s1 (racemic) | 0
Cc1ccc(C2Nc3ccccc3C(=O)N2C2CCCCC2)s1 (racemic) | 0
CCCCN1C(=O)c2ccccc2NC1c1ccc(C)s1 (racemic) | 0
CCC(C)N1C(=O)c2ccccc2NC1c1ccc(C)s1 (racemic) | 0
Cc1ccc(C2Nc3ccccc3C(=O)N2C(C)C)s1 (racemic) | 0
COc1ccc(CCN2C(=O)c3ccccc3NC2c2ccc(C)s2)cc1 (racemic) | 0
Cc1ccc(C2Nc3ccccc3C(=O)N2c2ccc(-c3ccccc3)cc2)s1 (racemic) | 0
Cc1ccc(C2Nc3ccccc3C(=O)N2c2ccc(C#N)cc2)s1 (racemic) | 0
Cc1ccc(C2Nc3ccccc3C(=O)N2c2cccc(C(F)(F)F)c2)s1 (racemic) | 0

SMILES | Activity [%]
Cc1ccc(C2Nc3ccccc3C(=O)N2c2cccnc2)s1 (racemic) | 0
CN1c2ccccc2C(=O)N(c2ccccc2)C1c1ccc(CNCc2ccccc2)s1 (racemic) | 6.2
CN1c2ccccc2C(=O)N(c2ccccc2)C1c1ccc(CCl)s1 (racemic) | 0
CN1c2ccccc2C(=O)N(c2ccccc2)C1c1ccc(Sc2ccccc2)s1 (racemic) | 75.5
CN1c2ccccc2C(=O)N(c2ccccc2)C1c1ccc(C#N)s1 (racemic) | 0
COc1ccc(-c2ccc(C3N(C)c4ccccc4C(=O)N3c3ccccc3)s2)cc1OC (racemic) | 1.5
CN1c2ccccc2C(=O)N(c2ccccc2)C1c1ccc(-c2cccc([N+](=O)[O-])c2)s1 (racemic) | 0
COC(=O)c1ccc(-c2ccc(C3N(C)c4ccccc4C(=O)N3c3ccccc3)s2)cc1 (racemic) | 2.9
CC(=O)c1ccc(-c2ccc(C3N(C)c4ccccc4C(=O)N3c3ccccc3)s2)cc1 (racemic) | 0.7
CN1c2ccccc2C(=O)N(c2ccccc2)C1c1ccc(-c2ccc(Oc3ccccc3)cc2)s1 (racemic) | 15.7
COc1cc(-c2ccc(C3N(C)c4ccccc4C(=O)N3c3ccccc3)s2)cc(OC)c1OC (racemic) | 0
COc1ccc(-c2ccc(C3N(C)c4ccccc4C(=O)N3c3ccccc3)s2)cc1 (racemic) | 26.2
Cc1ccc(-c2ccc(C3N(C)c4ccccc4C(=O)N3c3ccccc3)s2)cc1[N+](=O)[O-] (racemic) | 0
CN1c2ccccc2C(=O)N(c2ccccc2)C1c1ccc(-c2ccc(C#N)cc2)s1 (racemic) | 0
CN1c2ccccc2C(=O)N(c2ccccc2)C1c1ccc(-c2csc3ccccc23)s1 (racemic) | 0
CN1c2ccccc2C(=O)N(c2ccccc2)C1c1ccc(-c2ccc3ccccc3c2)s1 (racemic) | 9.7
CN1c2ccccc2C(=O)N(c2ccccc2)C1c1ccc(-c2cccc3ccccc23)s1 (racemic) | 0
CN1c2ccccc2C(=O)N(c2ccccc2)C1c1ccc(-c2ccc3[nH]ccc3c2)s1 (racemic) | 0
CN1c2ccccc2C(=O)N(c2ccccc2)C1c1ccc(-c2ccccn2)s1 (racemic) | 94.6
CN1c2ccccc2C(=O)N(c2ccccc2)C1c1ccc(-c2ccoc2)s1 (racemic) | 74.7
CN1c2ccccc2C(=O)N(c2ccccc2)C1c1ccc(-c2cccs2)s1 (racemic) | 84
CN1c2ccccc2C(=O)N(c2ccccc2)C1c1ccc(-n2cccc2)s1 (racemic) | 12

SMILES | Activity [%]
Cc1ccc(C2N(C)c3ccccc3C(=O)N2c2ccccc2Br)s1 (racemic) | 10.5
Cc1ccc(C2N(C)c3ccccc3C(=O)N2c2ccccc2C#N)s1 (racemic) | 54
Cc1ccc(C2N(C)c3ccccc3C(=O)N2c2ccccc2Oc2ccccc2)s1 (racemic) | 23
Cc1ccc(C2N(C)c3ccccc3C(=O)N2c2ccccc2Sc2ccccc2)s1 (racemic) | 9.6
Cc1ccc(C2N(C)c3ccccc3C(=O)N2c2ccccc2-c2ccccc2)s1 (racemic) | 99
Cc1ccc(C2N(C)c3ccccc3C(=O)N2c2ccccc2Cc2ccccc2)s1 (racemic) | 1
Cc1ccc(C2N(C)c3ccccc3C(=O)N2c2ccccc2C(F)(F)F)s1 (racemic) | 3
Cc1ccc(C2N(C)c3ccccc3C(=O)N2c2ccccc2OC(F)(F)F)s1 (racemic) | 4.4
Cc1ccc(C2N(C)c3ccccc3C(=O)N2c2ccccc2OCc2ccccc2)s1 (racemic) | 9.8
Cc1csc(C2Nc3ccccc3C(=O)N2c2ccccc2)c1 (racemic) | 1
CCCc1ccc(C2Nc3ccccc3C(=O)N2c2ccccc2)s1 (racemic) | 54
Cc1ccc(C2Nc3ccccc3C(=O)N2c2ccncc2)s1 (racemic) | 0
Cc1ccc(C2Nc3ccccc3C(=O)N2c2ccncn2)s1 (racemic) | 0.5
Cc1ccc(C2Nc3ccccc3C(=O)N2c2ccc(Br)cc2)s1 (racemic) | 0
Cc1ccc(C2Nc3ccccc3C(=O)N2c2cccc(Br)c2)s1 (racemic) | 0
Cc1ccc(C2Nc3ccccc3C(=O)N2c2ccccc2Br)s1 (racemic) | 0
Cc1ccc(C2Nc3ccccc3C(=O)N2c2ccc(Cl)cc2)s1 (racemic) | 0
Cc1ccc(C2Nc3ccccc3C(=O)N2c2cccc(Cl)c2)s1 (racemic) | 54
CSc1ccccc1N1C(=O)c2ccccc2NC1c1ccc(C)s1 (racemic) | 75
Cc1ccc(C2Nc3c(C)cccc3C(=O)N2c2ccccc2)s1 (racemic) | 4
Cc1ccc2c(c1)C(=O)N(c1ccccc1)C(c1ccc(C)s1)N2 (racemic) | 11.2
COc1ccc2c(c1)C(=O)N(c1ccccc1)C(c1ccc(C)s1)N2 (racemic) | 2
